In patent EP0623621A1, “Oxazabicyclo derivatives and their use as 5-HT4 receptor agonists” (NISSHIN FLOUR MILLING CO., LTD., priority 1993, dated 1994):

Tested on: longitudinal muscle with adherent myenteric plexus preparation
Experiment: Gastrointestinal motility promoting action: increase of electrically induced twitch response of isolated guinea pig ileum
Type: cell-based, guinea pigs
Settings: compound at 10⁻⁵ M, transmural electrical stimulation (1 msec, 0.1 Hz)
Description: The gastrointestinal motility promoting action of the present compounds was tested by the following method.
Ileum was excised from guinea pigs to prepare longitudinal muscle with adherent myenteric plexus preparation (approximately 2 cm length). The preparation suspended in organ bath containing Krebs-Henselite solution aerated with a mixed gas (5% CO₂, 95% O₂) were subjected to transmural electrical stimulation (1 msec, 0.1 Hz). Consistent twitch response induced by electrical stimulation and increase of twitch response induced by compound were recorded with an isometric transducer. The compounds were dissolved in distilled water or DMSO and tested at concentration of 10⁻⁵ M. The result is shown in terms of percent increase (%) in the contraction height by the electrical stimulation after administration of the compound relative to the contraction height before administration of the compound. Compound of Example 10 16.1% Compound of Example 29 22.4%

Row | Compound | percent increase (%) in the contraction height by the electrical stimulation after administration of the compound relative to the contraction height before administration of the compound [%]
1 | CC(C)=CCn1nc(C(=O)NC2CC3COCC(C2)N3Cc2ccc(F)cc2)c2ccccc21 (stereo not drawn) [Example 10, N-[endo-9-(p-fluorobenzyl)-3-oxa-9-azabicyclo[3.3.1]non-7-yl]-1-(3-methyl-2-butenyl)indazole-3-carboxamide] | 16.1
2 | COc1cc(N)c(Cl)cc1C(=O)NC1CC2COCC(C1)N2Cc1ccc(F)cc1 (stereo not drawn) [Example 29, N-[endo-9-(p-fluorobenzyl)-3-oxa-9-azabicyclo[3.3.1]non-7-yl]-4-amino-5-chloro-2-methoxybenzamide] | 22.4
